Results as given in article PMC10447463, “Data-mining unveils structure–property–activity correlation of viral infectivity enhancing self-assembling peptides” (Nature Communications, 2023).
Like-named read-outs stand apart in the source and are kept apart here.

Tests used:
[1] = test system: HIV-1 infection of TZM-bl cells; experiment: HIV-1 infectivity enhancement assay, β-galactosidase luminescence; assay type: cell-based; details: for Rel-EFC: infection relative to EF-C (QCKIKQIINMWQ = 1); for Log10 Infection Rel EFC: log10 of infection relative to EF-C; for Log Infectivity: Log10 infection relative to EF-C, asymmetric std dev errors; for Log10 Infection Rel EF-C: HIV-1 infection of TZM-bl cells; for Abs. Inf.: β-galactosidase luminescence; for Log10 Inf. rel. to EF-C: log10 of HIV-1 infection of TZM-bl cells relative to EF-C (EF-C = 0); for Log10 of Rel to EFC (Feb2021): Log10 of infection relative to EF-C, all peptides of FigS16
[2] = β-sheet content by ATR-FT-IR; assay type: physicochemical; details: for b -sheet / %: Fig. S7 panel A, β-sheet content by ATR-FT-IR
Procedure: For ATR FT–IR spectroscopy measurements, 200 µL of the respective 1 mg/mL PNF solution was lyophilized and the resulting powder used for measurement. All spectra were recorded on a Bruker Tensor 27 spectrometer with a diamond crystal as ATR element (PIKE MiracleTM, spectral resolution 2 cm^-1). Every sample was measured with 64 scans. Data were analyzed with OriginLab software and calculation of β–sheet content was conducted according to a previous report. TEM. For TEM measurements 5 µL of PNF fibrils (1 mg/mL) were placed on copper grids coated with carbon and formvar layer (300 mesh, Plano GmbH). After 10 min incubation time, the grids were staining with 4% uranyl acetate solution for 2.5 min and washed with water. Measurements were performed on a Jeol 1400 electron microscope with 120 kV acceleration voltage. CR Assay. For the determination of the amount of peptide monomer converting into nanostructures the amine reactive dye fluorescamine was used analogous to a previous reported protocol. Briefly, 100 µL of the preformed PNF solution was centrifuged in a Vivaspin 500 tube (3 kDa MWCO) to separate fibers from free peptide monomer (16200 x g, 4 °C, 45 min). The filtrate and 100 μL of the non-filtered PNF sample were lyophilized and dissolved in 30 μL DMSO. 10 μL of the filtrate and non-filtered DMSO samples were submitted in a black UV Star® 384 microliter well–plates (Greiner bio–one) and 3 μL of the fluorescamine solution (10 mg/mL, DMSO) was added to measure the fluorescence enhancement. After 20 min of incubation at RT, fluorescence was recorded on an Infinite® M1000 PRO microplate reader (Tecan) at λem = 470 nm upon excitation at λex = 365 nm with 10 nm bandwidths and multiple reads per well (3×3). Measurements were repeated in triplicates and averaged with standard deviation. All values were calculated as n-fold fluorescence enhancement (DMSO only as a reference was set to 1). The conversion rate CR was defined according to the equation Eq. (3).3 CR=100−100×fluorescenceintensityfiltrate/fluorescenceintensityoriginal[%]

[3] = assay type: physicochemical; details: for ThT Cat. / ThT-Fluorescence (categorical): ThT-active if fluorescence at least twice the control
How it was run: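 Preformed peptide fibrils (1 mg/mL) mixed with 50 µM ThT in PBS, 15 min at RT, fluorescence ex 440/em 488 nm versus PBS blank, triplicates. Zeta potential: peptides at 1 mg/mL in PBS pH 7.4, aged 1 d at RT, diluted in 1 mM KCl, Smoluchowski from electrophoretic mobility.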

[4] = Fig. S7 panel A (plotted against β-sheet content), TZM-bl cells
[5] = Fig. S7 panel B (plotted against CR), rounded to two decimals, TZM-bl cells
[6] = Log10 of infection rate relative to EF-C, Figure 3A source data
[7] = infection rate relative to EF-C, log10, data of Figure 2D
[8] = infection rate relative to EF-C, log10, source data of Figure 2C
[9] = absolute infection signal, HIV-1 on TZM-bl cells
[10] = ThT fluorescence category, 1 if Rel. ThT >2

Substance | Rel-EFC ([1]; 1.3 µM peptide) | Log10 Infection Rel EFC ([1]; 1.3 µM peptide) | Log Infectivity [1, 4] | Log Infectivity [1, 5] | Log10 Infection Rel EF-C [1, 6] | Log10 Infection Rel EF-C [1, 7] | Log10 Infection Rel EF-C [1, 8] | Abs. Inf. [1, 9] | Log10 Inf. rel. to EF-C [1] | b -sheet / % [2] [%] | Tht category (> 2 to blank = +) ([3]; Fig S10 panel D) | ThT Cat. ([3]; Fig S10 panel E) | Tht category (> 2 to blank = +) ([3]; FigS12 panel A) | ThT Cat, ([3]; FigS12 panel B) | ThT Cat, ([3]; ThT category, 1 if Rel. ThT >2) | ThT Cat. ([3]; ThT category, 1 if Rel. ThT >2) | ThT Cat. / ThT-Fluorescence (categorical) [3] | Log10 of Rel to EFC (Feb2021) [1] | ThT Cat. [3, 10] | other results
CKFKQFF | 0,01 | -2,17 | -2.171 | -2.17 | -2.17 | -2.171 | -2.171 | 260 | -2.171 | 45.4057 | 0 (ThT-inactive (N-Fold <2)) | 0 (ThT-inactive (N-Fold <2)) | 0 (ThT-inactive (N-Fold <2)) | 0 (ThT-inactive (N-Fold <2)) | 0 (ThT-inactive (N-Fold <2)) | 0 (ThT-inactive (N-Fold <2)) | 0 (ThT-inactive (N-Fold <2)) |  |  | Abs. Infection at 0.26 µM ([1]; peptide 0.26 µM, mean of n = 3, Figure 4A): 366.7; Infect 1 0.26 µM ([1]; peptide 0.26 µM, replicate 1, absolute infection signal, Figure 4A): 260; Infect 2 0.26 µM ([1]; peptide 0.26 µM, replicate 2, absolute infection signal, Figure 4A): 50; Infect 3 0.26 µM ([1]; peptide 0.26 µM, replicate 3, absolute infection signal, Figure 4A): 790; Abs. Infection at 1.3 µM ([1]; peptide 1.3 µM, mean of n = 3, Figure 4A): 260; Infect 1 .3 µM ([1]; peptide 1.3 µM, replicate 1, absolute infection signal, Figure 4A): 440; Infect 2 1.3µM ([1]; peptide 1.3 µM, replicate 2, absolute infection signal, Figure 4A): 160; Infect 3 1.3 µM ([1]; peptide 1.3 µM, replicate 3, absolute infection signal, Figure 4A): 180
KFKFQFNM | 0,47 | -0,33 | -0.3265 | -0.33 | -0.33 | -0.3265 | -0.3265 | 7067 | -0.3265 | 40.31 | 0 (ThT-inactive (N-Fold <2)) | 0 (ThT-inactive (N-Fold <2)) |  |  | 0 (ThT-inactive (N-Fold <2)) | 0 (ThT-inactive (N-Fold <2)) | 0 (ThT-inactive (N-Fold <2)) | -0.33 |  | 
CKFKFQFW | 0,88 | -0,06 | -0.05512 | -0.06 | -0.06 | -0.05512 | -0.05512 |  |  | 42.53 | 0 (ThT-inactive (N-Fold <2)) | 0 (ThT-inactive (N-Fold <2)) |  |  | 0 (ThT-inactive (N-Fold <2)) | 0 (ThT-inactive (N-Fold <2)) | 0 (ThT-inactive (N-Fold <2)) | -0.06 |  | Abs. Inf. ([1]; absolute HIV-1 infection signal, TZM-bl cells): 17862.22222
CKFKQFFNMWQ | 0,61 | -0,21 | -0.2148 | -0.21 | -0.21 | -0.2148 | -0.2148 | 23486.66667 | -0.2148 | 59.11 | 1 (ThT. Cat is 1, if Rel. ThT >2) | 1 (ThT. Cat is 1, if Rel. ThT >2) |  |  | 1 (ThT. Cat is 1, if Rel. ThT >2) | 1 (ThT. Cat is 1, if Rel. ThT >2) | 1 (ThT. Cat is 1, if Rel. ThT >2) | -0.21 |  | 
KVKVQVV | 0,01 | -2,04 | -2.04 |  | -2.04 | -2.04 | -2.04 |  |  | 45.1 | 0 (ThT-inactive (N-Fold <2)) |  | 0 (ThT-inactive (N-Fold <2)) | 0 (ThT-inactive (N-Fold <2)) | 0 (ThT-inactive (N-Fold <2)) |  | 0 (ThT-inactive (N-Fold <2)) |  | 0 (ThT-inactive (N-Fold <2)) | 
CKAKAQA | 0,03 | -1,5 | -1.501 | -1.5 | -1.5 | -1.501 | -1.501 |  |  | 34.73 | 0 (ThT-inactive (N-Fold <2)) | 0 (ThT-inactive (N-Fold <2)) | 0 (ThT-inactive (N-Fold <2)) | 0 (ThT-inactive (N-Fold <2)) | 0 (ThT-inactive (N-Fold <2)) |  | 0 (ThT-inactive (N-Fold <2)) |  | 0 (ThT-inactive (N-Fold <2)) | 
CKFKQFFNM | 0,41 | -0,39 | -0.3892 |  | -0.39 | -0.3892 | -0.3892 | 15720 | -0.3892 | 41.58 | 1 (ThT. Cat is 1, if Rel. ThT >2) |  |  |  | 1 (ThT. Cat is 1, if Rel. ThT >2) | 1 (ThT. Cat is 1, if Rel. ThT >2) | 1 (ThT. Cat is 1, if Rel. ThT >2) | -0.39 |  | 
KFKFQFN | 0,02 | -1,74 | -1.744 |  | -1.74 | -1.744 | -1.744 | 270 | -1.744 | 38.13 | 0 (ThT-inactive (N-Fold <2)) |  | 0 (ThT-inactive (N-Fold <2)) | 0 (ThT-inactive (N-Fold <2)) | 0 (ThT-inactive (N-Fold <2)) | 0 (ThT-inactive (N-Fold <2)) | 0 (ThT-inactive (N-Fold <2)) |  |  | Inf. rel. EF-C ([1]; HIV-1 infection relative to EF-C, Fig 23 plot, panels A and B, mean of 3 values): 0.01184; Inf. rel. EF-C ([1]; HIV-1 infection relative to EF-C, Fig 23 plot, single data point, replicate 2): 0.01096; Inf. rel. EF-C ([1]; HIV-1 infection relative to EF-C, Fig 23 plot, single data point, replicate 3): 0.005798; Abs. Inf. / RLU s-1 ([1]; absolute infection rate, peptide 1.3 µM on cells, virus preincubated 10 min with fibrils, read 3 days post infection, mean of triplicate): 270 RLU s-1; Inf. rel. EF-C ([1]; n-fold infection vs virus only, relative to that of EF-C, 1.3 µM peptide): 0.02; ß-sheet / % ([2]; ATR-FT-IR of lyophilised 1 mg/mL PNF solution, peak integral ratio 1625-1635 cm-1, measured once): 38%; Rel. ThT ([3]; n-fold ThT fluorescence vs control (PBS, 10% DMSO), 4 µL 1 mg/mL fibrils + 20 µL 50 µM ThT, 15 min RT, ex 440 / em 488 nm, triplicate): 1.1
KLKLKLQL | 0,1 | -1,01 | -1.009 |  | -1.01 | -1.009 | -1.009 |  |  | 42.3363 | 0 (ThT-inactive (N-Fold <2)) |  | 0 (ThT-inactive (N-Fold <2)) | 0 (ThT-inactive (N-Fold <2)) | 0 (ThT-inactive (N-Fold <2)) |  | 0 (ThT-inactive (N-Fold <2)) |  | 0 (ThT-inactive (N-Fold <2)) | 
